Experimental findings from US6660728B2, “Thienyl substituted acylguanidines as inhibitors of bone resorption and vitronectin receptor antagonists” (Aventis Pharma Deutschland GmbH, priority 1998, dated 2003) are described below.

Data set [1] concerns the target T1, Human Vitronectin Receptor (VnR) αvβ3 (Homo sapiens, UniProt P05106+P06756).
T1 construct: Human vitronectin receptor was isolated from human placenta using the method of Pytela et al; from tissue; host or cells: human placenta
Nature of the data set: K/VnR test: inhibition of the binding of kistrin to human vitronectin receptor (ELISA).

T1 sequence (P06756 31-889 limits assumed): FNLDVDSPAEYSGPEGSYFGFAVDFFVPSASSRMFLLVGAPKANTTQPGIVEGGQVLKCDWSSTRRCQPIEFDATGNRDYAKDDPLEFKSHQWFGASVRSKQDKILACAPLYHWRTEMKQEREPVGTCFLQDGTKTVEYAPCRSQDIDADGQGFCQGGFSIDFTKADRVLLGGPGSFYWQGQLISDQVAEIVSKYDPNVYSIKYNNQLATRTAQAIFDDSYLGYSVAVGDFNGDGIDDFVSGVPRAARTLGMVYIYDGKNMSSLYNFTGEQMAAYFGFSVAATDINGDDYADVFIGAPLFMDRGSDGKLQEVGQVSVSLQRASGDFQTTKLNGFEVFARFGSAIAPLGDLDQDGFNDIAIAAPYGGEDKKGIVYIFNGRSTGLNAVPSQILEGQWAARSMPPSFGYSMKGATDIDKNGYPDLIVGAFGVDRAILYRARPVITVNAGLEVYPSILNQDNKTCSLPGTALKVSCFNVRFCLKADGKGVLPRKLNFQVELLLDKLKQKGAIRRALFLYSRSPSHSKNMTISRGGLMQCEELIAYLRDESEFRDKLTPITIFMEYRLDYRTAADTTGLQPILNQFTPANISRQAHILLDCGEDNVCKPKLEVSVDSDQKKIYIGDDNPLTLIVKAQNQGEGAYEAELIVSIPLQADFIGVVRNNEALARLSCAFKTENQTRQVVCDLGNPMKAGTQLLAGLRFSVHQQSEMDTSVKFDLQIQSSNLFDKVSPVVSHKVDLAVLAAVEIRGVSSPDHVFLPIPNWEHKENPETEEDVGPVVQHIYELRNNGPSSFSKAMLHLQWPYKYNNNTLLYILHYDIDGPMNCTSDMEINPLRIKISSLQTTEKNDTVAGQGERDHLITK
T1 sequence (P06756 891-1048 limits assumed): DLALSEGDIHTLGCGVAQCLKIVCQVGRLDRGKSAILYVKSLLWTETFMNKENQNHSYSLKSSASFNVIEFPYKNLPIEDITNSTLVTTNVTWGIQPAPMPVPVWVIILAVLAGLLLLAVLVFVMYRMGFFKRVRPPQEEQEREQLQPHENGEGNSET
T1 sequence (P05106 27-788): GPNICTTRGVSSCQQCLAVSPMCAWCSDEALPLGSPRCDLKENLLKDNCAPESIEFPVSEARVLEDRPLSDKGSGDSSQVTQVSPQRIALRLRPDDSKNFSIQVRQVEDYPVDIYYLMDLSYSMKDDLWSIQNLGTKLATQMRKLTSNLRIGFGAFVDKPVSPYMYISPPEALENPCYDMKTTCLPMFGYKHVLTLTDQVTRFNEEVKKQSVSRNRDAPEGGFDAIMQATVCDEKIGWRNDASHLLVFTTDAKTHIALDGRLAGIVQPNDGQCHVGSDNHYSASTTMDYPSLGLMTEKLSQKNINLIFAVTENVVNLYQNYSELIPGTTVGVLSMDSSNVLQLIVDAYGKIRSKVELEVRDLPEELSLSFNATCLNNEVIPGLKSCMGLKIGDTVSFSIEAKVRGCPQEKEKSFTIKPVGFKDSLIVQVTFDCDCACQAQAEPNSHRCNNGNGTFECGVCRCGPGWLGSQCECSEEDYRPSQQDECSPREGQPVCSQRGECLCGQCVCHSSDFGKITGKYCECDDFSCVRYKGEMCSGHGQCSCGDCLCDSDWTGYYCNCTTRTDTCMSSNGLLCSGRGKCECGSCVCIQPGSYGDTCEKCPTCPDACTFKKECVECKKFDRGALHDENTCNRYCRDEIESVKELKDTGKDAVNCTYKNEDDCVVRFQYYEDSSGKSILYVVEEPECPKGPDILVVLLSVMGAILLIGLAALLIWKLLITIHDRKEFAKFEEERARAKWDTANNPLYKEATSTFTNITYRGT

Regarding `CC(C)COC(=O)[C@H](CNC(=O)c1ccc(CCC(=O)NC2=NCCCN2)s1)NC(=O)OCC12CC3CC(CC(C3)C1)C2`, the melting point (as a rule, the temperature, or range, at which the solid turns liquid) is 210 °C (dec.).

As for `CC(C)OC(=O)[C@H](CNC(=O)c1ccc(CCC(=O)NC2=NCCCN2)s1)NC(=O)OCC12CC3CC(CC(C3)C1)C2`, the melting point is 160 °C (dec.).

With `O=C(/C=C/c1ccc(C(=O)NC[C@H](NC(=O)OCc2ccccc2)C(=O)O)s1)NC1=NCCCN1` [Example 14, (2S)-2-Benzyloxycarbonylamino-3-((5-(2-(1,4,5,6-tetrahydropyrimidin-2-ylcarbamoyl)-vinyl)-thiophene-2-carbonyl)-amino)-propionic Acid], the IC50 (usually the concentration that inhibits the measured activity by half) in data set [1] was above 10 µM.

On to `O=C(O)C[C@H](NC(=O)c1ccc(CCC(=O)NC2=NCCCN2)s1)c1ccc2c(c1)OCO2`, for which the melting point is 130 °C.
